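Briefly, cells in 96-well plates were exposed to five compound concentrations for 48 h, and endpoints were estimated by linear interpolation. GI50 is the concentration that inhibits growth by half. TGI denotes the concentration required for complete inhibition of growth.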 A value given as a limit tells only on which side of the number the result lay.

Some test systems named below: SF-539 CNS; HOP-92 NSCLC; A498 renal; HCT-116 colon; SK-OV-3 ovarian; UACC-62 melanoma; MALME-3M melanoma; ACHN renal; MDA-MB-231 breast.
Assay in all cases: NCI-60 cell line screen, 48 h

Turning to `COC(=O)C(Cc1nc2ccccc2[nH]c1=O)/C(=N\NC(C)(C)C)C(=O)Nc1c(C)cc(Br)cc1C` (centres undefined), the TGI was 44.5 µM in the test on SF-539 CNS; 45.5 µM in the test with HOP-92 NSCLC; 69.5 µM in the test on A498 renal; 37 µM in the test with HCT-116 colon; above 100 µM in the test on SK-OV-3 ovarian; 44.9 µM with UACC-62 melanoma. Also, the figures for the TGI with MALME-3M melanoma and with ACHN renal were 62.2 µM and above 100 µM, respectively.
For `C=CC(=O)NCCSCCCOC1(C(=O)O)CC(O)C(NC(C)=O)C(C(O)C(O)CO)O1` (centres undefined), the TGI with SF-539 CNS, with HOP-92 NSCLC, with HCT-116 colon, with SK-OV-3 ovarian, with UACC-62 melanoma and in the test on MALME-3M melanoma was above 100 µM throughout. This molecule also displayed a TGI in the test with ACHN renal above 100 µM.
Take `O=[N+]([O-])c1ccc(C2CC(c3ccccc3Cl)=Nc3ccccc3S2)cc1` (centres undefined): the TGI with SF-539 CNS is 17.7 µM; in the test with HOP-92 NSCLC it was 29.5 µM; in the test with A498 renal it was 17.4 µM; in the test with HCT-116 colon, 4.92 µM; in the test on SK-OV-3 ovarian it was above 85.3 µM; in the test with UACC-62 melanoma, 16.1 µM. For the same molecule, the TGI amounted to 24.9 µM in the test with MALME-3M melanoma and 42.9 µM in the test with ACHN renal.
As to `Nc1c(-c2cn(Cc3ccccc3)c3ccccc23)[n+]([O-])c2ccccc2[n+]1[O-]`, the TGI with HOP-92 NSCLC is 43.1 µM; in the test on A498 renal, 41.9 µM; in the test on SK-OV-3 ovarian, 95.3 µM; in the test on UACC-62 melanoma, above 100 µM; in the test with MALME-3M melanoma it was above 100 µM; with ACHN renal it was above 100 µM.
In the case of `COc1ccc(OC(C)=O)c2c1CCC=CC2=O`, the TGI amounted to 30.9 µM in the test on SF-539 CNS; 7.49 µM with HOP-92 NSCLC; 37.5 µM in the test with A498 renal; 34.3 µM in the test with HCT-116 colon; 31.2 µM with SK-OV-3 ovarian; 26.2 µM in the test on UACC-62 melanoma. The results for the TGI with MALME-3M melanoma and in the test on ACHN renal were 44.1 µM and 32 µM, respectively.
In the case of `CC(=O)Nc1ccc(/C=c2\sc3nnc(CCC(=O)Nc4ccccc4Cl)n3c2=O)cc1`, the TGI is 58 µM in the test with SF-539 CNS; 57.7 µM in the test with HOP-92 NSCLC; above 100 µM in the test on HCT-116 colon; above 100 µM in the test with SK-OV-3 ovarian; 56.2 µM in the test on UACC-62 melanoma; above 100 µM in the test with MALME-3M melanoma. Also, in the test on ACHN renal, the TGI was above 100 µM.
`C#CCNC(=O)N(CC#C)N=O`: the TGI in the test on SF-539 CNS, in the test on HOP-92 NSCLC, with A498 renal, in the test with HCT-116 colon, in the test with SK-OV-3 ovarian and with UACC-62 melanoma was above 100 µM in each case. Moreover, the TGI with MALME-3M melanoma and in the test on ACHN renal was above 100 µM throughout.
For the molecule `COc1ccc(C(CCC(C)=O)C(=O)O)cc1OC` (centres undefined), the TGI with SF-539 CNS, in the test on HOP-92 NSCLC, in the test on A498 renal, in the test on HCT-116 colon, in the test on UACC-62 melanoma and with MALME-3M melanoma was above 100 µM throughout. Besides, the TGI in the test on ACHN renal is above 100 µM.
Consider `CCN(CC)CC(C)(C)C(=O)/C=C/c1cccc(/C=C/C(=O)C(C)(C)CN(CC)CC)c1`, for which the TGI with SF-539 CNS stood at 2.27 µM; in the test on HOP-92 NSCLC, 1.68 µM; in the test on A498 renal, 2.71 µM; with HCT-116 colon, 1.24 µM; in the test on SK-OV-3 ovarian, 2.79 µM; in the test with UACC-62 melanoma, 3.16 µM. Further, the TGI in the test with MALME-3M melanoma worked out at 3.11 µM; in the test on ACHN renal, 2.38 µM.
For the molecule `C=C=C(C(=O)OC)S(=O)c1ccccc1[N+](=O)[O-]` (centres undefined), the TGI in the test with SF-539 CNS, in the test with A498 renal, in the test with HCT-116 colon, in the test on SK-OV-3 ovarian, in the test on UACC-62 melanoma and with MALME-3M melanoma was above 100 µM throughout. In the test with ACHN renal, this molecule gave a TGI above 100 µM.
In the case of `CC(=O)Nc1ccccc1-c1nc2ccccc2nc1C`, the TGI with SF-539 CNS, in the test with HOP-92 NSCLC, in the test with A498 renal, in the test on HCT-116 colon, in the test with SK-OV-3 ovarian and in the test on UACC-62 melanoma was above 100 µM in each case. The TGI with MALME-3M melanoma and in the test on ACHN renal was above 100 µM throughout.
As for `COC1OC(CO)C(O)C(OC(C)=O)C1NC(=O)N(CCCl)N=O` (centres undefined), the TGI with SF-539 CNS, in the test with A498 renal, in the test with HCT-116 colon, with SK-OV-3 ovarian, with UACC-62 melanoma and in the test with MALME-3M melanoma was above 100 µM throughout. Besides, in the test on ACHN renal, the TGI was above 100 µM.
Consider `COc1ccccc1NC(=O)C1=C(C)NC(C)=C(C(=O)Nc2ccccc2OC)C1C1=CC=COC1`, for which the TGI in the test on SF-539 CNS turned out to be 30.7 µM; in the test on HOP-92 NSCLC it was 83.8 µM; in the test on A498 renal, 45.4 µM; in the test with HCT-116 colon, 17.2 µM; in the test on SK-OV-3 ovarian it was 71.2 µM; with UACC-62 melanoma, 15.5 µM. Also, the TGI with MALME-3M melanoma and with ACHN renal was above 100 µM in each case.
With `Cc1ccc(S(=O)(=O)c2ccc(NC(=O)SCCC(=O)O)cc2)cc1`, the TGI in the test on SF-539 CNS, in the test with A498 renal, in the test with HCT-116 colon, in the test on UACC-62 melanoma and with ACHN renal was above 100 µM in each case.
`O=c1cc(-c2ccccc2)oc2ccc(OC/C(=N/O)c3ccccc3)cc12`: the GI50 with SF-539 CNS was 1.39 µM; in the test on HOP-92 NSCLC it was 25.2 µM; in the test on MDA-MB-231 breast it was 2.63 µM; in the test on HCT-116 colon it was 3.11 µM; with SK-OV-3 ovarian, 1.1 µM; with UACC-62 melanoma it was 2.48 µM. Besides, the TGI in the test on SF-539 CNS is 2.93 µM; in the test with HOP-92 NSCLC, above 50 µM; with MDA-MB-231 breast, above 50 µM; in the test on HCT-116 colon, above 50 µM; in the test on SK-OV-3 ovarian, 16.2 µM; in the test with UACC-62 melanoma, above 50 µM.
As for `CC1=C(O)c2cn(C)cc2C(=O)C1=O`, the TGI with SF-539 CNS, in the test on HOP-92 NSCLC, with A498 renal, in the test with HCT-116 colon, in the test with SK-OV-3 ovarian and in the test on UACC-62 melanoma was above 100 µM in each case. Moreover, the TGI in the test with MALME-3M melanoma and in the test on ACHN renal was above 100 µM throughout.
Take `O=C1CC(c2c(-c3ccccc3)[nH]c3ccccc23)C(=O)N1` (centres undefined): the TGI with SF-539 CNS, in the test on A498 renal, in the test with HCT-116 colon, with SK-OV-3 ovarian, in the test on UACC-62 melanoma and in the test with MALME-3M melanoma was above 100 µM throughout. This molecule had a TGI in the test on ACHN renal above 100 µM.

These data come from PubChem BioAssay (NCI).
